Test results reported in patent US20200165291A1, “NEUROACTIVE STEROIDS, COMPOSITIONS, AND USES THEREOF” (Sage Therapeutics, Inc., priority 2014, published 2020).
Read-outs that look alike come from different tables or passages of the source.

Legend:
[1] = target: T1, recombinant α4β3δ GABAA receptors (Homo sapiens, UniProt P28472+P48169); experiment: Patch clamp electrophysiology, manual patch, CHO cells; assay type: cell-based; conditions: 10 μM test article, GABA EC20 = 2 μM, read-out: GABA (α4β3δ) Manual patch in CHO, % efficacy at 10 μM
T1 construct: expressed in transfected cells; host or cells: CHO cells (transient transfection, Lipofectamine)
T1 sequence (P48169 36-554): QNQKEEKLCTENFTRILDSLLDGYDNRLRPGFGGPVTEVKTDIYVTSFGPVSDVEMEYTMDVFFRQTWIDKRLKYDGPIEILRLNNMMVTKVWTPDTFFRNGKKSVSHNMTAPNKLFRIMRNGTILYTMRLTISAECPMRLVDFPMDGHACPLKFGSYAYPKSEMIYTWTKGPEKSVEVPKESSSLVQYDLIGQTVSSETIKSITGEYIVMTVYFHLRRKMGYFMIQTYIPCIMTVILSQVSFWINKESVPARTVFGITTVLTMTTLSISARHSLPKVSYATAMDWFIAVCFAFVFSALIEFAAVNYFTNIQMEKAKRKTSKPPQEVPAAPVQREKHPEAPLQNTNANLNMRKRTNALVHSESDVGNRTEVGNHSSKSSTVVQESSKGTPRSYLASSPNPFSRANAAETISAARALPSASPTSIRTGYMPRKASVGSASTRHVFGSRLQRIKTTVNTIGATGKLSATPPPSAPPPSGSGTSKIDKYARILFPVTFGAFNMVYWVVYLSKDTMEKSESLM
T1 sequence (P28472 26-473): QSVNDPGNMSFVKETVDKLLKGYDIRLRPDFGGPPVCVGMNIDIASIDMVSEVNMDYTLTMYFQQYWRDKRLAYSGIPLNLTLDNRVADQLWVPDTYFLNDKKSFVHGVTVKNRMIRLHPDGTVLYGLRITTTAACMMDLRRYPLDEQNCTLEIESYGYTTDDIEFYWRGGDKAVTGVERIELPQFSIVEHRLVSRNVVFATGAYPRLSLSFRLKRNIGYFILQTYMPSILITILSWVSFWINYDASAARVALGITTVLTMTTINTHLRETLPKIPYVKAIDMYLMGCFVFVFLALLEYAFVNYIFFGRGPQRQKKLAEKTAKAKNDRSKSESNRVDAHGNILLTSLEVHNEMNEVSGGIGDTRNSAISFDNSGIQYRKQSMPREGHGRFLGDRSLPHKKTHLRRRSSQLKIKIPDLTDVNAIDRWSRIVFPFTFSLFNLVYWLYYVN
T1 sequence (O14764 17-452 partner limits assumed): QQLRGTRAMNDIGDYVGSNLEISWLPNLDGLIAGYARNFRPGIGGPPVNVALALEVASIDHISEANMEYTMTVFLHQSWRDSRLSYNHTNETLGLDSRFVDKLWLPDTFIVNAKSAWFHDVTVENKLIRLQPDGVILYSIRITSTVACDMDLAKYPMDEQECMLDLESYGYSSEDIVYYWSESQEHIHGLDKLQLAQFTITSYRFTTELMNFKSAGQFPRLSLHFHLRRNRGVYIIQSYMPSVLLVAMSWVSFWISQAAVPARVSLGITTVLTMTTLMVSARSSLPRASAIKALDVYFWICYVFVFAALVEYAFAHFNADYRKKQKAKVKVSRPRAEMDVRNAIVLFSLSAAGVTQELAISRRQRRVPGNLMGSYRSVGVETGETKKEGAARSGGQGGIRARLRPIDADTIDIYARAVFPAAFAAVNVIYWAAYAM

[2] = target: [35S]-TBPS binding, rat brain cortical membranes (GABA receptor complex); experiment: [35S]-TBPS binding (steroid inhibition of TBPS binding); conditions: in the presence of 5 μM GABA, read-out: 35S-TBPS Radioligand Displacement
Description: [35S]-t-Butylbicyclophosphorothionate (TBPS) binding assays using rat brain cortical membranes in the presence of 5 μM GABA has been described (Gee et al, J. Pharmacol. Exp. Ther. 1987, 241, 346-353; Hawkinson et al, Mol. Pharmacol. 1994, 46, 977-985; Lewin, A. H et al., Mol. Pharmacol. 1989, 35, 189-194).
Briefly, cortices are rapidly removed following decapitation of carbon dioxide-anesthetized Sprague-Dawley rats (200-250 g). The cortices are homogenized in 10 volumes of ice-cold 0.32 M sucrose using a glass/teflon homogenizer and centrifuged at 1500×g for 10 min at 4° C. The resultant supernatants are centrifuged at 10,000×g for 20 min at 4° C. to obtain the P2 pellets. The P2 pellets are resuspended in 200 mM NaCl/50 mM Na-K phosphate pH 7.4 buffer and centrifuged at 10,000×g for 10 min at 4° C. This washing procedure is repeated twice and the pellets are resuspended in 10 volumes of buffer. Aliquots (100 μL) of the membrane suspensions are incubated with 3 nM [^35S]-TBPS and 5 μL aliquots of test drug dissolved in dimethyl sulfoxide (DMSO) (final 0.5%) in the presence of 5 μM GABA. The incubation is brought to a final volume of 1.0 mL with buffer. Nonspecific binding is determined in the presence of 2 μM unlabeled TBPS and ranged from 15 to 25%. Following a 90 min incubation at room temp, the assays are terminated by filtration through glass fiber filters (Schleicher and Schuell No. 32) using a cell harvester (Brandel) and rinsed three times with ice-cold buffer. Filter bound radioactivity is measured by liquid scintillation spectrometry. Non-linear curve fitting of the overall data for each drug averaged for each concentration is done using Prism (GraphPad). […] The concentration of test compound producing 50% inhibition (IC50) of specific binding and the maximal extent of inhibition (Imax) are determined for the individual experiments with the same model used for the overall data and then the means±SEM.s of the individual experiments are calculated.
Various compounds are or can be screened to determine their potential as modulators of [^35S]-TBPS binding in vitro. These assays are or can be performed in accordance with the above discussed procedures.

[3] = tested on: PTZ-treated male CD-1 mice; experiment: Acute PTZ (pentylenetetrazol-induced seizure) method in mice; assay type: in vivo; conditions: Mus musculus, latency to tonic seizures, read-out: Anticonvulsive Effect Dose (minimal effective anticonvulsant dose)
Description: The anticonvulsant effect of test compounds were assessed in the pentylenetetazol-induced seizure assay in mice similar to methods described in Giardina & Gasior (2009) Curr Protoc Pharmacol., Chapter 5. Male CD-1 mice were housed in groups of five under controlled conditions (temperature of 22±2° C. and 12:12 light-dark cycle, lights on at 8:00 am) and water and food were available ad libitum. The mice were housed for 1 week prior to behavioral testing, at which time they weighed 25-35 g. Pentylenetetrazol (PTZ, Sigma) was dissolved in sterile 0.9% saline at a concentration of 12 mg/mL concentration for subcutaneous administration. Test compounds were formulated and administered via oral gavage or intraperitoneal injection at a predetermined time-point (typically 30 or 60 minutes) prior to PTZ injection. All solutions were made fresh and were given in a volume of 10 ml/kg body weight.
Mice were acclimated to the test room for at least 30 min before compound administration. Mice were randomized into at least four test groups (vehicle and at least three doses of the test compound) with 10 mice per group. […] Following the drug pretreatment time the mice were injected s.c. with PTZ (120 mg/kg). Immediately following the PTZ injection, mice were individually placed into observation chambers (25×15×15 cm) and a three-channel timer was started. Each mouse was continuously observed for 30 min and the following behaviors were recorded by observers blinded to the treatments: 1) latency to clonic convulsions that persist for 3 sec and followed by an absence of righting reflex 2) latency to tonic convulsions, characterized by the rigid extension of all four limbs that exceeded a 90 degree angle with the body 3) latency to death 4) number of clonic and tonic convulsions. Data are presented as mean±S.E.M and one-way analysis of variance with Dunnett's or Bonferroni's post-hoc test was used to detect significant differences in latency and number between the vehicle and dose group. p values<0.05 were regarded as statistically significant.

[4] = target: T2, recombinant α1β2γ2 GABAA receptors (Homo sapiens, UniProt P14867+P47870); experiment: Patch clamp electrophysiology, QPatch, LTK cells; assay type: cell-based; conditions: 10 μM test article, GABA EC20 = 2 μM, read-out: GABA (α1β2γ2) Qpatch in Ltk, % efficacy at 10 μM
T2 construct: expressed in transfected cells
T2 sequence (P14867 28-456): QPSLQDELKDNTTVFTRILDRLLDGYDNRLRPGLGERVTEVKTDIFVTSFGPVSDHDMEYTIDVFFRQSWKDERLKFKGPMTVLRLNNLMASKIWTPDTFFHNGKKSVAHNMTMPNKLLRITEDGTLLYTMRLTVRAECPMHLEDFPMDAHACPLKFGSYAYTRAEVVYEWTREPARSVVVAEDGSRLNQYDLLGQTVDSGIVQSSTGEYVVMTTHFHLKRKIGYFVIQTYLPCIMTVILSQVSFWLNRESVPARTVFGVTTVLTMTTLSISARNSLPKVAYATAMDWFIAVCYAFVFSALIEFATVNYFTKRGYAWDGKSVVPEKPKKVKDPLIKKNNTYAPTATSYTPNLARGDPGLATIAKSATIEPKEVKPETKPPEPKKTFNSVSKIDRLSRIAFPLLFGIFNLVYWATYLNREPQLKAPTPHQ
T2 sequence (P47870 25-512 limits assumed): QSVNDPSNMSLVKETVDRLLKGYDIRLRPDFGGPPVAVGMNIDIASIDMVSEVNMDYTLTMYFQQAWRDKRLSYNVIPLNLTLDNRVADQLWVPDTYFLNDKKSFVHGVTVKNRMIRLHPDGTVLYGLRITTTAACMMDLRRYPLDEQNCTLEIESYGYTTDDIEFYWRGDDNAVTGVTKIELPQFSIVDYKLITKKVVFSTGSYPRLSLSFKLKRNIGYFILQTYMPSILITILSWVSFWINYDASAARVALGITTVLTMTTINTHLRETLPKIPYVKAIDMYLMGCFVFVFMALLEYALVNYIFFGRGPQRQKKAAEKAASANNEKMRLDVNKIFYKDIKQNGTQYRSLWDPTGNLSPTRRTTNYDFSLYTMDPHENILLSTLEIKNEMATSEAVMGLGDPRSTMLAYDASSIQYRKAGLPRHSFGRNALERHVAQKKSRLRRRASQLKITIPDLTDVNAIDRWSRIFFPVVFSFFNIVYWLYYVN
T2 sequence (P18507 40-475 partner): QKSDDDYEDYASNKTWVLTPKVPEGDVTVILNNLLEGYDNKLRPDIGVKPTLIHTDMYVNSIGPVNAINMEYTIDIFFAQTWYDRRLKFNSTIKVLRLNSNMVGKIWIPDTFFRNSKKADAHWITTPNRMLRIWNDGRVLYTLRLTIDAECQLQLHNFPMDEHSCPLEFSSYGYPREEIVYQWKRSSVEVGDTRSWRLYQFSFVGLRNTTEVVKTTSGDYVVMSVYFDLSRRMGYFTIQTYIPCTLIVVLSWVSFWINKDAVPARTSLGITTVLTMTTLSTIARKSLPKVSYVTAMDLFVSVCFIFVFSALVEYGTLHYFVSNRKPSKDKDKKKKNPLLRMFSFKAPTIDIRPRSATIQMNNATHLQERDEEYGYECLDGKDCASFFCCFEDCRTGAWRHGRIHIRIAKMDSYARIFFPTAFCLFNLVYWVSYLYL

| Compound | Emax at 10 µM [1] [%] | IC50 [2] [nM] | minimal effective dose ([3]; PO (oral administration)) [mg/kg] | Emax at 10 µM [4] [%] | minimal effective dose ([3]; IP (intraperitoneal injection)) [mg/kg] | Emax at 10 µM ([1]; in cremophor) [%] | Emax at 10 µM ([4]; in cremophor) [%] |
| --- | --- | --- | --- | --- | --- | --- | --- |
| C[C@@]1(O)CC[C@H]2[C@H](CC[C@@H]3[C@@H]2CC[C@]2(C)[C@@H](C(=O)Cn4cnnn4)CC[C@@H]32)C1 [SA-2] | 100 to 500 | 50 to 100 | 1 to 3 | > 500 |  |  |  |
| Cc1cnnn1CC(=O)[C@H]1CC[C@H]2[C@@H]3CC[C@@H]4C[C@](C)(O)CC[C@@H]4[C@H]3CC[C@]12C [SA-4] | > 500 |  |  | > 500 |  |  |  |
| Cc1nnnn1CC(=O)[C@H]1CC[C@H]2[C@@H]3CC[C@@H]4C[C@](C)(O)CC[C@@H]4[C@H]3CC[C@]12C [SA-6] | > 500 | 1 to 50 | 1 to 3 | 100 to 500 |  |  |  |
| C[C@@]1(O)CC[C@H]2[C@H](CC[C@@H]3[C@@H]2CC[C@]2(C)[C@@H](C(=O)Cn4ccnn4)CC[C@@H]32)C1 [SA-9] | > 500 | 1 to 50 |  | 100 to 500 | 1 to 3 |  |  |
| C[C@@]1(O)CC[C@H]2[C@H](CC[C@@H]3[C@@H]2CC[C@]2(C)[C@@H](C(=O)Cn4ncc(C(N)=O)n4)CC[C@@H]32)C1 [SA-13] |  |  |  |  |  | > 500 | 100 to 500 |
| C[C@@]1(O)CC[C@H]2[C@@H](CC[C@@H]3[C@@H]2CC[C@]2(C)[C@@H](C(=O)Cn4cncn4)CC[C@@H]32)C1 [SB-1] | > 500 | 100 to 500 |  |  |  |  |  |
| C[C@@]1(O)CC[C@H]2[C@@H](CC[C@@H]3[C@@H]2CC[C@]2(C)[C@@H](C(=O)Cn4cnnn4)CC[C@@H]32)C1 [SB-2] | 100 to 500 | 100 to 500 |  | 100 to 500 | > 3 |  |  |
| Cc1nnnn1CC(=O)[C@H]1CC[C@H]2[C@@H]3CC[C@H]4C[C@](C)(O)CC[C@@H]4[C@H]3CC[C@]12C [SB-4] | > 500 |  |  | 100 to 500 |  |  |  |
| C[C@@]1(O)CC[C@H]2[C@@H](CC[C@@H]3[C@@H]2CC[C@]2(C)[C@@H](C(=O)Cn4ccnn4)CC[C@@H]32)C1 [SB-6] | 100 to 500 | 50 to 100 |  | 100 to 500 | 1 to 3 |  |  |
| Cc1nnnn1CC(=O)[C@H]1CC[C@H]2[C@@H]3CC[C@@H]4C[C@@](O)(CF)CC[C@@H]4[C@H]3CC[C@]12C [SF-2] | > 500 |  |  | 100 to 500 |  |  |  |
| C[C@]12CC[C@H]3[C@@H](CC[C@@H]4C[C@@](O)(C(F)F)CC[C@@H]43)[C@@H]1CC[C@@H]2C(=O)Cn1cnnn1 [SG-1] | 100 to 500 |  |  | 100 to 500 |  |  |  |
| C[C@]12CC[C@H]3[C@@H](CC[C@@H]4C[C@@](O)(C(F)F)CC[C@@H]43)[C@@H]1CC[C@@H]2C(=O)Cn1ccnn1 [SG-5] | > 500 | 100 to 500 |  | > 500 |  |  |  |
| COC[C@@]1(O)CC[C@H]2[C@@H](CC[C@@H]3[C@@H]2CC[C@]2(C)[C@@H](C(=O)Cn4cnnn4)CC[C@@H]32)C1 [SI-1] | > 500 | 100 to 500 | 1 to 3 | 100 to 500 |  |  |  |
| COC[C@@]1(O)CC[C@H]2[C@@H](CC[C@@H]3[C@@H]2CC[C@]2(C)[C@@H](C(=O)Cn4nnnc4C)CC[C@@H]32)C1 [SI-3] | > 500 |  | ≤ 1 | 100 to 500 |  |  |  |
| C[C@@H]1C[C@H]2[C@@H](CC[C@@H]3[C@@H]2CC[C@]2(C)[C@@H](C(=O)Cn4nccn4)CC[C@@H]32)C[C@]1(C)O [SN-2] | 100 to 500 | 1 to 50 |  | 100 to 500 |  |  |  |
| CC[C@@]1(O)CC[C@H]2[C@@H](CC[C@@H]3[C@@H]2CC[C@]2(C)[C@@H](C(=O)Cn4nnnc4C)CC[C@@H]32)C1 [SP-4] |  | > 500 |  | 10 to 100 |  |  |  |
| CO[C@H]1C[C@H]2[C@@H](CC[C@@H]3[C@@H]2CC[C@]2(C)[C@@H](C(=O)Cn4ccnn4)CC[C@@H]32)C[C@]1(C)O [SU-1] |  | 100 to 500 |  | 100 to 500 |  |  |  |
| CO[C@H]1C[C@H]2[C@@H](CC[C@@H]3[C@@H]2CC[C@]2(C)[C@@H](C(=O)Cn4nccn4)CC[C@@H]32)C[C@]1(C)O [SU-2] | > 500 | 50 to 100 |  | 100 to 500 |  |  |  |
| C[C@@]1(O)CC[C@@H]2[C@H]3CC[C@]4(C)[C@@H](C(=O)Cn5cnnn5)CC[C@H]4[C@@H]3C[C@@H](F)[C@H]2C1 [SV-4] | 100 to 500 |  | 1 to 3 | 100 to 500 |  |  |  |
| Cc1nnnn1CC(=O)[C@H]1CC[C@H]2[C@@H]3C[C@@H](F)[C@H]4C[C@](C)(O)CC[C@@H]4[C@H]3CC[C@]12C [SV-6] | 100 to 500 |  |  | 100 to 500 |  |  |  |
| CO[C@@H]1C[C@@H]2[C@H](CC[C@]3(C)[C@@H](C(=O)Cn4ccnn4)CC[C@@H]23)[C@H]2CC[C@@](C)(O)C[C@@H]21 [SW-1] |  | > 500 |  | 100 to 500 |  |  |  |
| CCO[C@H]1C[C@H]2[C@@H](CC[C@@H]3[C@@H]2CC[C@]2(C)[C@@H](C(=O)Cn4ccnn4)CC[C@@H]32)C[C@]1(C)O [SY-1] |  | 100 to 500 |  | 100 to 500 |  |  |  |
| CCO[C@H]1C[C@H]2[C@@H](CC[C@@H]3[C@@H]2CC[C@]2(C)[C@@H](C(=O)Cn4nccn4)CC[C@@H]32)C[C@]1(C)O [SY-2] | > 500 | 100 to 500 |  | 100 to 500 |  |  |  |
| C[C@H]1C[C@H]2[C@@H](CC[C@@H]3[C@@H]2CC[C@]2(C)[C@@H](C(=O)Cn4ccnn4)CC[C@@H]32)C[C@]1(C)O [SZ-1] |  | 50 to 100 |  | 100 to 500 |  |  |  |
| C[C@H]1C[C@H]2[C@@H](CC[C@@H]3[C@@H]2CC[C@]2(C)[C@@H](C(=O)Cn4nccn4)CC[C@@H]32)C[C@]1(C)O [SZ-2] | 100 to 500 | 50 to 100 |  | 100 to 500 |  |  |  |
